Data set [1] can be described thus: Acute toxicity (50% lethal dose, determined graphically). The conditions noted are these: mouse, in vivo, CDl mice. Type of data set: in vivo, mice (CDl). As to the method: (§1) Acute toxicity: the experiments were carried out on CDl mice of average weight 20 g. The 50% lethal dose (LD 50) was determined graphically.
Data set [2] concerns rats. Description: Anorexia-inducing action, food consumption of female SJ (Janvier) rats. The class given is in vivo. The settings on record: for ED50: Rattus norvegicus, female SJ (Janvier) rats, oral, 1 hour before distribution of food. The procedure:
(§2) The experiment was carried out by administering each compound orally at several doses to batches of 8 animals per dose, 1 hour before the distribution of the food, and graphically determining the 50% active doses (AD 50 = dose capable of reducing the food consumption by 50%).

Data set [3] deals with rats. Description: Anorexia-inducing action, food consumption of male Charles River rats, 1 hour and 6 hours after administration. The conditions noted are these: Rattus norvegicus, oral. The class given is in vivo. The procedure:
as §2
The AD 50 (i.e. the dose which reduces food consumption by 50% compared with untreated controls) was also determined, in the same way as that described above, on male `Charles River` rats, 1 hour and 6 hours after administration of the compounds under test.

The test system of the next data set is CDl mice. Description: Acute toxicity (50% lethal dose, determined graphically). Type of data set: in vivo. The procedure: as §1
The test system of the next data set is CD1 mice. Kind of data set: Conventional actimetry test (motility). Type of data set: in vivo.
The mark [4] stands for this setting: intravenous, read-out: Acute toxicity LD 50, intravenous administration.
[5] abbreviates: oral, read-out: Acute toxicity LD 50, oral administration.
The mark [6] stands for this setting: 1st series, read-out: Anorexia-inducing action AD 50, administered orally, 1st series.
Setting [7] is: after 1 hour, read-out: Anorexia-inducing Action AD 50 orally after 1 hour.
Where [8] appears, read: after 6 hours, read-out: Anorexia-inducing Action AD 50 orally after 6 hours.
The mark [9] stands for this setting: 2nd series, read-out: Anorexia-inducing action AD 50, administered orally, 2nd series.

The structures appear in SMILES notation. Where two headings read alike, the source gives them in different places. Some results are limits rather than exact numbers.

Here are results for three compounds from patent publication US4044132A, “Substituted piperazine derivative, its preparation and anorexia compositions containing it” (Synthelabo, priority 1975, dated 1977).

With `CCNC(C)Cc1cccc(C(F)(F)F)c1` (stereo not shown) [Fenfluramine, reference compound], the figures for the LD50 in data set [1] (setting [4]) and in data set [1] (setting [5]) were 42 mg/kg and 195 mg/kg, respectively. Moreover, the ED50 in the data set on rats [2] (setting [6]) was 5 mg/kg; with rats [3] (setting [7]), 1.4 mg/kg; in the data set on rats [3] (setting [8]), 4 mg/kg.

Regarding `Fc1ccc(N2CCNCC2)cc1C(F)(F)F` [SLC-001, 1-(4-fluoro-3-trifluoromethyl-phenyl)-piperazine, reference compound], the figures for the LD50 in data set [1] (setting [4]) and in data set [1] (setting [5]) were 59 mg/kg and 150 mg/kg, respectively. Also, the ED50 in the data set on rats [2] (setting [9]) was 2.2 mg/kg; with rats [3] (setting [7]) it was 2 mg/kg; in the data set with rats [3] (setting [8]), over 6 mg/kg.

Turning to `Fc1ccc(N2CCNCC2)cc1SC(F)(F)F` [SLC-298, 1-(4-fluoro-3-trifluoromethylthiophenyl)-piperazine], the LD50 in data set [1] (setting [4]) was 60 mg/kg; in data set [1] (setting [5]), 150 mg/kg. Moreover, in the data set with CDl mice (overall conclusion), the toxicity entry was “moderate”. For the same compound, in the data set on CDl mice (overall conclusion from LD 50 and AD 50), the therapeutic index result is listed as “high”. In addition, the ED50 in the data set with rats [2] (setting [6]) was found to be 1.5 mg/kg; in the data set on rats [2] (setting [9]), 1.8 mg/kg; with rats [3] (setting [7]) it was 1.9 mg/kg; with rats [3] (setting [8]), 2.7 mg/kg. Moreover, the “anorexia-inducing activity compared with the reference compounds” value with rats [2] (overall conclusion from Tables I and II) is reported as “more active as an anorexia-inducing agent than the reference compounds”. Further, in the data set on CD1 mice (CD1 mice, 20 mg/kg), the “motor activity at higher doses” value is on record as “reduces the motor activity”. Further, the “motility at a low dose” value in the data set with CD1 mice (CD1 mice, up to 5 mg/kg) is “only very slightly increases the motility”. Further, in the data set on CD1 mice (overall conclusion), the stimulant effect entry is “little or no stimulant effect”.
